According to ChEMBL document CHEMBL5321294, “Evolution of Slow-Binding Inhibitors Targeting Histone Deacetylase Isoforms” (J Med Chem, 2023):
pIC50, pKi: −log10 of the molar value.

What was measured:
Histone deacetylase 3 [1] = biological target: T1, Histone deacetylase 3 (Homo sapiens, UniProt O15379); experiment: Binding affinity to human HDAC3 assessed as residence time
Histone deacetylase 8 [2] = biological target: T2, Histone deacetylase 8 (Homo sapiens, UniProt Q9BY41); experiment: Binding affinity to HDAC8 (unknown origin) assessed as inhibition constant(ki,1)
T2 sequence (Q9BY41 whole entry): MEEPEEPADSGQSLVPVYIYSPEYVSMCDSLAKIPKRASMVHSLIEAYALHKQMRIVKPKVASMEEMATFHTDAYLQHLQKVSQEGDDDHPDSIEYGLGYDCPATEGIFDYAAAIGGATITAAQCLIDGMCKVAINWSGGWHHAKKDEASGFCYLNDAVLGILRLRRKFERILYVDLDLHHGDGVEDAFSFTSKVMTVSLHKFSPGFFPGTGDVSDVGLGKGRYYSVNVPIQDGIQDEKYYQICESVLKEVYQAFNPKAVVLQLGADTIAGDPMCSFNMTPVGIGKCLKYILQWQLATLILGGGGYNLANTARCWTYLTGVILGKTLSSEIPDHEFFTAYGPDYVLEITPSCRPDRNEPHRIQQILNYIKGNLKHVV

Histone deacetylase 3 [3] = biological target: T1, Histone deacetylase 3; experiment: Binding affinity to HDAC3 (unknown origin) assessed as binding constant(k2)
Histone deacetylase 2 [4] = biological target: T3, Histone deacetylase 2 (Homo sapiens, UniProt Q92769); experiment: Binding affinity to human HDAC2 assessed as residence time
Histone deacetylase 8 [5] = biological target: T2, Histone deacetylase 8; experiment: Binding affinity to HDAC8 (unknown origin) assessed as inhibition constant
Histone deacetylase 3 [6] = biological target: T1, Histone deacetylase 3; experiment: Binding affinity to HDAC3 (unknown origin) assessed as binding constant(k-2)
Histone deacetylase 3 [7] = biological target: T1, Histone deacetylase 3; experiment: Binding affinity to HDAC3 (unknown origin) assessed as residence time
Histone deacetylase 3 [8] = biological target: T1, Histone deacetylase 3; experiment: Binding affinity to HDAC3 (unknown origin) assessed as inhibition constant
Histone deacetylase 1 [9] = biological target: T4, Histone deacetylase 1 (Homo sapiens, UniProt Q13547); experiment: Binding affinity to HDAC1 (unknown origin) assessed as inhibition constant
Histone deacetylase 1 [10] = biological target: T4, Histone deacetylase 1; experiment: Binding affinity to HDAC1 (unknown origin) assessed as binding constant (Kon)
Histone deacetylase 1 [11] = biological target: T4, Histone deacetylase 1; experiment: Binding affinity to HDAC1 (unknown origin) assessed as dissociation constant (Koff)
Homo sapiens [12] = organism: Homo sapiens; experiment: Selectivity index, ratio of IC50 for Inhibition of human HDAC3 to IC50 for Inhibition of human HDAC1
Histone deacetylase 2 [13] = biological target: T3, Histone deacetylase 2; experiment: Binding affinity to human HDAC2 assessed as half life
Homo sapiens [14] = organism: Homo sapiens; experiment: Selectivity index, ratio of IC50 for Inhibition of human HDAC3 to Inhibition of human IC50 for HDAC2
Histone deacetylase 3 [15] = biological target: T1, Histone deacetylase 3; experiment: Binding affinity to human HDAC3 assessed as binding rate constant (Kon)
Histone deacetylase 3 [16] = biological target: T1, Histone deacetylase 3; experiment: Binding affinity to human HDAC3 assessed as dissociation rate constant (Koff)
Histone deacetylase 3 [17] = biological target: T1, Histone deacetylase 3; experiment: Binding affinity to human HDAC3 assessed as half life
Histone deacetylase 1 [18] = biological target: T4, Histone deacetylase 1; experiment: Binding affinity to human HDAC1 assessed as half life
[19] = biological target: T5, Protein deacetylase HDAC6 (Homo sapiens, UniProt Q9UBN7); experiment: Binding affinity to N-terminal GST-tagged human full length HDAC6 expressed in baculovirus infected Sf9 cells using Fluor-de-Lys Green as substrate assessed as inhibition constant
T5 sequence (Q9UBN7 whole entry): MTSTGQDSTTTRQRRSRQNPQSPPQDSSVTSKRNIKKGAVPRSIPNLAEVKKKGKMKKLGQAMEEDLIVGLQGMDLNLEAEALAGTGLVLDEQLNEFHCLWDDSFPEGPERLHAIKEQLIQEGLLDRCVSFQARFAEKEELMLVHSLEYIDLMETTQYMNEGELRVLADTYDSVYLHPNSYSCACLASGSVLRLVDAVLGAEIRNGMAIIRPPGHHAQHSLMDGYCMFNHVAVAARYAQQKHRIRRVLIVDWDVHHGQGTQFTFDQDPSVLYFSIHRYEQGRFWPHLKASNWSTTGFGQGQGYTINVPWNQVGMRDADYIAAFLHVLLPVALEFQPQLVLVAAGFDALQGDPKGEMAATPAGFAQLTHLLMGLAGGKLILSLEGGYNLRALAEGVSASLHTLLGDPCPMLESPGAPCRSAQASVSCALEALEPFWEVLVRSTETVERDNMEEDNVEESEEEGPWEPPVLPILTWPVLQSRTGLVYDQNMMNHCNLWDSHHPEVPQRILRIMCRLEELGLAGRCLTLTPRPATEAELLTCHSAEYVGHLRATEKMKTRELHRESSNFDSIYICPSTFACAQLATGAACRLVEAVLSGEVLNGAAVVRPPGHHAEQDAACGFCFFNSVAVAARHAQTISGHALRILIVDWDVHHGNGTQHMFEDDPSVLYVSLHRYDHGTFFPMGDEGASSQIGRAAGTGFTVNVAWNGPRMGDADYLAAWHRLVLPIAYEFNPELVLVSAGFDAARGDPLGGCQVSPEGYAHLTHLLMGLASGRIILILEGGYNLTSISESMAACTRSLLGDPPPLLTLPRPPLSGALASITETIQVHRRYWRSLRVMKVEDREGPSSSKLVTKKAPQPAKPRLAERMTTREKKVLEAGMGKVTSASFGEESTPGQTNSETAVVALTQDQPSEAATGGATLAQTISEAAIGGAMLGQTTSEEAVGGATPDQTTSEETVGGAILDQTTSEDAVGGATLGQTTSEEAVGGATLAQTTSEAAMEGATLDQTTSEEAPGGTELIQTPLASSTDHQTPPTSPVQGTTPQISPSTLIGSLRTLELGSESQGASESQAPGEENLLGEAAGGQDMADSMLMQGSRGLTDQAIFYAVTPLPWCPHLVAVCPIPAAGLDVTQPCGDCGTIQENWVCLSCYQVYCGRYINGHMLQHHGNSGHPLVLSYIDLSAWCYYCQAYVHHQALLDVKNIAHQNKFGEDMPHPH

[20] = biological target: T6, Protein deacetylase HDAC6 (Homo sapiens) (UniProt Q9UBN7); experiment: Binding affinity to N-terminal GST-tagged human full length HDAC6 expressed in baculovirus infected Sf9 cells using Fluor-de-Lys Green as substrate assessed as dissociation constant (koff) by jump dilution assay
T6 sequence (whole entry): T5 sequence (Q9UBN7 whole entry)

[21] = biological target: T6, Protein deacetylase HDAC6 (Homo sapiens); experiment: Binding affinity to N-terminal GST-tagged human full length HDAC6 expressed in baculovirus infected Sf9 cells using Fluor-de-Lys Green as substrate assessed as residence time
[22] = biological target: T6, Protein deacetylase HDAC6 (Homo sapiens); experiment: Binding affinity to N-terminal GST-tagged human full length HDAC6 expressed in baculovirus infected Sf9 cells using Fluor-de-Lys Green as substrate assessed as residence time by jump dilution assay
[23] = biological target: T6, Protein deacetylase HDAC6 (Homo sapiens); experiment: Binding affinity to N-terminal GST-tagged human full length HDAC6 expressed in baculovirus infected Sf9 cells using Fluor-de-Lys Green as substrate assessed as dissociation constant (koff)
[24] = biological target: T5, Protein deacetylase HDAC6; experiment: Inhibition of N-terminal GST-tagged human full length HDAC6 expressed in baculovirus infected Sf9 cells using Fluor-de-Lys Green as substrate
[25] = biological target: T6, Protein deacetylase HDAC6 (Homo sapiens); experiment: Binding affinity to N-terminal GST-tagged human full length HDAC6 expressed in baculovirus infected Sf9 cells using Fluor-de-Lys Green as substrate assessed as association constant (kon)
Histone deacetylase 1 [26] = biological target: T4, Histone deacetylase 1; experiment: Inhibition of HDAC1 (unknown origin) measured after 1 hrs by fluorescence based assay
Histone deacetylase 2 [27] = biological target: T3, Histone deacetylase 2; experiment: Inhibition of HDAC2 (unknown origin) measured after 1 hrs by fluorescence based assay
Histone deacetylase 3 [28] = biological target: T1, Histone deacetylase 3; experiment: Inhibition of HDAC3 (unknown origin) measured after 24 hrs by fluorescence based assay
Histone deacetylase 3 [29] = biological target: T1, Histone deacetylase 3; experiment: Inhibition of HDAC3 (unknown origin) measured after 1 hrs by fluorescence based assay
Histone deacetylase 1 [30] = biological target: T4, Histone deacetylase 1
Description: Binding affinity to HDAC1 (unknown origin) using Ac-LGKac-AMC as substrate assessed as half life

Histone deacetylase 1 [31] = biological target: T4, Histone deacetylase 1; remark: listed apart in the source
Histone deacetylase 3 [32] = biological target: T1, Histone deacetylase 3
Description: Binding affinity to HDAC3 (unknown origin) using Ac-LGKac-AMC as substrate assessed as half life

Histone deacetylase 1 [33] = biological target: T4, Histone deacetylase 1; remark: listed apart in the source
Histone deacetylase 2 [34] = biological target: T3, Histone deacetylase 2
Description: Binding affinity to HDAC2 (unknown origin) using Ac-LGKac-AMC as substrate assessed as half life

Histone deacetylase 2 [35] = biological target: T3, Histone deacetylase 2; remark: listed apart in the source
Description: Binding affinity to HDAC2 (unknown origin) using Ac-LGKac-AMC as substrate assessed as residence time

T4 sequence (Q13547 whole entry): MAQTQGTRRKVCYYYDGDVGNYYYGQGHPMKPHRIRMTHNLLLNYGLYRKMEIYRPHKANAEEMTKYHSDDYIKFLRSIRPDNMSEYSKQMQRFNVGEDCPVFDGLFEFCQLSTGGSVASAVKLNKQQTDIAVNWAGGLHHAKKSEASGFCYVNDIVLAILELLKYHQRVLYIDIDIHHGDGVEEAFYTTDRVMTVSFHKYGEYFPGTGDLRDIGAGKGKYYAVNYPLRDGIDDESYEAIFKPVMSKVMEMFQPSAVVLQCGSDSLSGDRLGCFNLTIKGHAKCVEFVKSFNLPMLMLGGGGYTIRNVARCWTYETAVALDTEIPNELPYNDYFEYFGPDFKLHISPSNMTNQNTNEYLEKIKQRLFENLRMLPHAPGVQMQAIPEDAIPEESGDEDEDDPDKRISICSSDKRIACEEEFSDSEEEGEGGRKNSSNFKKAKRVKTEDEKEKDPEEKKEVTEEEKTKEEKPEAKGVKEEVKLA
T3 sequence (Q92769 whole entry): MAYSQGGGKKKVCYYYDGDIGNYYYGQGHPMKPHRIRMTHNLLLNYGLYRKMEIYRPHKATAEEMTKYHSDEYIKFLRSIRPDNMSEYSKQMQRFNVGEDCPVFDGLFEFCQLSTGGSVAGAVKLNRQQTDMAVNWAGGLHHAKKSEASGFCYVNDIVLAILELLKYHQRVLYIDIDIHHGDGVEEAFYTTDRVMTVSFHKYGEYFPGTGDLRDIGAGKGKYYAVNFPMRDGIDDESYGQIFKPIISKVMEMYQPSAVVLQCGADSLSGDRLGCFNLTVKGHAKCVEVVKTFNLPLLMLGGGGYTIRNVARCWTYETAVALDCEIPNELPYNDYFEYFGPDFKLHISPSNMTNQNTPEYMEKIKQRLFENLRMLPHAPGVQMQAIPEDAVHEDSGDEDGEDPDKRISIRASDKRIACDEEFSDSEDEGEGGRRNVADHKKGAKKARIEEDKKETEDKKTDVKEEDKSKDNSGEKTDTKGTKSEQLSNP
T1 sequence (O15379 whole entry): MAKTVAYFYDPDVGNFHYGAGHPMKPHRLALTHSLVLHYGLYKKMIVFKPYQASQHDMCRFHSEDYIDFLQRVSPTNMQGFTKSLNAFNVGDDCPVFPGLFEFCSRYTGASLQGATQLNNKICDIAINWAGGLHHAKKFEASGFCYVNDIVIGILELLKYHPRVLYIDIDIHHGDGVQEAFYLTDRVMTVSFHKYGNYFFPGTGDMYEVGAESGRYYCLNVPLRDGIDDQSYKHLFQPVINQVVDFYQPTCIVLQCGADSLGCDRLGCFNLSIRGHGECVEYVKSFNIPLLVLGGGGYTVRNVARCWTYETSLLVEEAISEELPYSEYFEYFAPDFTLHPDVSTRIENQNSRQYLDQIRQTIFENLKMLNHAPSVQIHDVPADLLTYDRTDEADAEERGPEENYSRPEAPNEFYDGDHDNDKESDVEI

O=C(CCCCCCC(=O)C(F)(F)F)Nc1ccccc1
TIME (Histone deacetylase 3 [1]): 3.33 h | pKi (Histone deacetylase 8 [2]): 5.14 | K (Histone deacetylase 3 [3]): 0.24 min⁻¹ | TIME (Histone deacetylase 2 [4]): 2.08 h | pKi (Histone deacetylase 8 [5]): ~7.48 | K (Histone deacetylase 3 [6]): 5 10^-3/min

C[C@@H]1NC(=O)[C@H]2CCCN2C(=O)[C@H](CCCCCC(=O)[C@@H]2CO2)NC(=O)[C@@H](C)NC1=O
K (Histone deacetylase 3 [3]): 0.12 min⁻¹ | TIME (Histone deacetylase 3 [7]): 1.39 h | K (Histone deacetylase 3 [6]): 0.012 min⁻¹

CCC(=O)CCCCC[C@@H]1NC(=O)[C@H]2CCCCN2C(=O)[C@H]([C@@H](C)CC)NC(=O)[C@H](Cc2c[nH]c3ccccc23)NC1=O
pKi (Histone deacetylase 3 [8]): 6.22 | pKi (Histone deacetylase 1 [9]): 6.40

Nc1ccc(-c2ccncc2)cc1NC(=O)N1CCCC1
K (Histone deacetylase 1 [10]): 3080 M⁻¹ s⁻¹ | K (Histone deacetylase 1 [11]): 0.011 min⁻¹

CC(=O)Nc1ccc(C(=O)Nc2ccc(F)cc2N)cc1
TIME (Histone deacetylase 3 [1]): 1.9 h | Ratio IC50 (Homo sapiens [12]): > 17 | T1/2 (Histone deacetylase 2 [13]): 0.217 h | Ratio IC50 (Homo sapiens [14]): > 17 | TIME (Histone deacetylase 2 [4]): 0.3 h | K (Histone deacetylase 3 [15]): 5000 M⁻¹ s⁻¹ | K (Histone deacetylase 3 [16]): 0.009 min⁻¹ | T1/2 (Histone deacetylase 3 [17]): 1.32 h | T1/2 (Histone deacetylase 1 [18]): 2.5 min

FC(F)c1nnc(-c2ccc(Cn3cc(-c4ccc(NC5N=CCN5)cc4)nn3)cc2)o1 (stereo unspecified)
pKi [19]: 8.32 | K [20]: 3.3 10^-3/min | TIME [21]: 3.6 h | TIME [22]: 5.1 h | K [23]: 4.6 10^-3/min | pIC50 [24]: 8.11 | K [25]: 9.6 10^5/min/M

O=C(/C=C(\CO)c1ccccc1)c1ccccc1
pIC50 (Histone deacetylase 1 [26]): 5.43 | pIC50 (Histone deacetylase 2 [27]): 5.04 | pIC50 (Histone deacetylase 3 [28]): ~4.30 | pIC50 (Histone deacetylase 3 [29]): ~4.30

C/C=C1\NC(=O)[C@H]2CSSCC/C=C/[C@H](CC(=O)N[C@H](C(C)C)C(=O)N2)OC(=O)[C@H](C(C)C)NC1=O [ROMIDEPSIN]
T1/2 (Histone deacetylase 1 [30]): > 0.433 h | pKi (Histone deacetylase 1 [31]): 9.06 | T1/2 (Histone deacetylase 3 [32]): > 1670 h | pKi (Histone deacetylase 1 [33]): ~10.70

CC(=O)Nc1ccc(C(=O)Nc2ccccc2N)cc1
T1/2 (Histone deacetylase 2 [34]): > 2.32 h | T1/2 (Histone deacetylase 2 [35]): 3.33 h | T1/2 (Histone deacetylase 1 [30]): > 23.1 h | T1/2 (Histone deacetylase 3 [32]): > 0.833 h
